The results in this text go back to US20020173511A1, “Serotonergic compositions and methods for treatment of mild cognitive impairment” (priority 2000, published 2002).

One experiment has as its system Brain APP holoprotein. As to the kind of experiment: Western blot of brain APP holoprotein after chronic administration. The following applies: 10 consecutive days i.p., 1 mg/kg, p>0.05. The class given is in vivo, guinea pig. On the technique in general: In western blotting, separated proteins are transferred to a membrane and probed.
Experiment [1] has as its system Aβ1-40 in the cerebrospinal fluid. As to the kind of experiment: Aβ40 ELISA of CSF after i.p. injection. It is filed as in vivo, guinea pig. From the text: (§1) Guinea pigs are acclimatized to animal housing conditions for at least 70 days before receiving drug treatments or CSF withdrawal. CSF is withdrawn from the cisternae magna. Briefly, the dorsal cervical area and the occipital area of the skull is shaved and cleansed with alcohol after anesthesizing the guinea pigs with ketamine. A 33-gauge needle is used to penetrate the skin, the atlanto-occipital membrane and the dura mater in the region between the anterior of the first vertebra, and posterior of the cerebellum and the occipital protuberance. Upon penetration of the cistemae magna, a slight resistance in advancing the needle is felt; CSF is withdrawn via a PE10 polyethylene tubing attached to the needle at one end, and to a 20 ml syringe at the other. No more than 200 μL of CSF is withdrawn from each guinea pig per session or within a 24h interval. Occasionally, blood is present in the CSF; these samples are discarded and not used for analysis. The entire procedure for CSF withdrawal is completed within 5 minutes. […]
(§2) Measurements of soluble Aβ1-40 or Aβ1-42 in the CSF are quantified using the Aβ40 or Aβ42 enzyme-linked immunosorbent assay (ELISA) kit (QBC, Hopkinton, Mass.) using the procedures recommended by the manufacturer. […]
(An ELISA detects its analyte on a solid surface through an enzyme-linked reagent.)

Experiment [2] has as its system GFAP-immunoreactive cultured astrocytes. As to the kind of experiment: APP overexpression in cultured astrocytes. The class given is cell-based, rat. As for the experimental part: Astrocytes are isolated from cortices from postnatal rats by methods standard in the art. In brief, dissected cortices are dissociated by trypsinization and trituration through a flamepolished Pasteur pipette. Cells are plated onto poly-L-lysine coated 35- or 100 mm culture dishes at densities of about 10-25 cells/mm^2. The initial culture media, minimal essential medium (MEM, Gibco) containing 10% horse serum (BioWhittaker), are aspirated after 2-5 h after plating to remove unattached cells and debris, and replaced with MEM containing 7.5% fetal bovine serum (FBS, BioWhittaker). Half the media is replaced with MEM/7.5% FBS twice weekly. Cells are kept at 37° C. in a humidified 5% CO2/95% air incubator. Media are changed twice weekly. […]
The amount of media or cell protein loaded for sodium dodecyl sulfate-polyacrylamide gel electrophoresis (10-20% SDS PAGE; Bio-Rad) is normalized for the amount of protein per sample. […] Monoclonal antibodies 22C11 and GFAP (both from Boehringer Mannheim) are used to detect the N-terminus of APP and glial fibrillary acidic protein respectively; antisera R37 and R98 (gifts of Dr. F. Kametani, Tokyo Institute of Psychiatry) are used to detected the C-terminus and KPI motifs of APP respectively; antiserum C8 (gift of Dr. D. Selkoe, Women's Hospital, Harvard Medical School, Cambridge, Mass.) is used to detect the C-terminus of APP. […]

Experiment [3] has as its system Aβ1-42 in the cerebrospinal fluid. Put plainly: Aβ42 ELISA of CSF after i.p. injection. The class given is in vivo, guinea pig.
Description: as §1, §2

The subject of experiment [4] is APPs levels in the cerebrospinal fluid. As to the kind of experiment: Western blot of secreted APPs in CSF after i.p. injection. The following applies: for APPs levels in the cerebrospinal fluid relative to saline-injected control: CSF one hour after injection, p<0.05; for Inhibition of the stimulatory effect of dexnorfenfluramine (1 mg/kg) on APPs in CSF: ritanserin 1 mg/kg or ketanserin 2 mg/kg, CSF one hour after injections. The class given is in vivo, guinea pig. The source says: Guinea pigs are acclimatized to animal housing conditions for at least 70 days before receiving drug treatments or CSF withdrawal. CSF is withdrawn from the cisternae magna. Briefly, the dorsal cervical area and the occipital area of the skull is shaved and cleansed with alcohol after anesthesizing the guinea pigs with ketamine. A 33-gauge needle is used to penetrate the skin, the atlanto-occipital membrane and the dura mater in the region between the anterior of the first vertebra, and posterior of the cerebellum and the occipital protuberance. Upon penetration of the cistemae magna, a slight resistance in advancing the needle is felt; CSF is withdrawn via a PE10 polyethylene tubing attached to the needle at one end, and to a 20 ml syringe at the other. No more than 200 μL of CSF is withdrawn from each guinea pig per session or within a 24h interval. Occasionally, blood is present in the CSF; these samples are discarded and not used for analysis. The entire procedure for CSF withdrawal is completed within 5 minutes.
[…] Sterile normal saline is given control guinea pigs. To determine the time-course of APPs secretion, CSF is withdrawn at 1, 2, 4 or 8h after i.p. injections of either 1 mg/kg dexnorfenfluramine or saline. To determine the effect of chronic dexnorfenfluramine administration on secreted and brain APP levels, guinea pigs are injected with 2 mg/kg dexnorfenfluramine for 10 consecutive days. Withdrawal of CSF is performed 2h after dexnorfenfluramine on the tenth day, after which the guinea pigs are sacrificed and brains removed for analysis. Each guinea pig is repeatedly and randomly assigned on different days for either dose-response, for time-course, and for dexnorfenfluramine-5HT antagonist studies of APPs or Aβ secretion.
CSF (1-200 μL) is used for Western blot analysis of secreted APPs. For analysis of APP holoprotein, brain tissue from the cortex and hippocampus are collected in Eppendorf tubes and sonicated in 50 μL lysis buffer (60 mM Tris-HCl, 4%SDS, 20% glycerol, 1 mM dithiotreitol). The samples are boiled for 10 min to inhibit protease activity. The total amount of protein in each sample is measured by the bicinchoninic acid (Sigma) assay. Prior to gel electrophoresis, 1 μL of 5% bromphenol blue solution is added to each sample.
The amount of CSF or cell protein loaded for sodium dodecyl sulfate-polyacrylamide gel electrophoresis (10-20% SDS PAGE; Bio-Rad) is normalized for the amount of protein per sample. Proteins (equivalent to ˜100 μg cell protein/lane) are separated by electrophoresis, electroblotted onto polyvinylidene difluoride membranes (Immobilon-P, Millipore) and blocked in Tris-buffered saline with 0.15% Tween 20 (TBST) containing 5% powdered milk for 30 min. After 2×10 min rinses in TBST, the membranes are incubated in TBST containing an appropriate antibody. Monoclonal antibody 22C11 (from Boehringer-Mannheim) and APP-KPI (from Chemicon) were used to detect the N-terminus and KPI-domain of APP respectively; an antibody against glial fibrillary acidic […] (GFAP) is obtained from Chemicon.
After an overnight incubation, membranes are rinsed in TBST before being treated for lh with a peroxidase-linked secondary antibody. After several rinses in TBST, protein bands are visualized on Kodak X-AR films by an enhanced chemiluminescence method (Amersham). Optical densities of the protein bands are quantitated by laser scanning densitometry (LKB, Bromma, Sweden), and normalized to the densities of those bands generated under control conditions.
Data Analysis—Measurements of cellular and secreted proteins are normalized against those of control groups prepared in parallel and loaded onto the same blot. Analyses of variance (ANOVA) and t-tests for repeated measures are used to evaluate differences between groups (significance level, p=0.05), using drug treatments as the independent variable. Data are presented as means±SE, n=number of independent experiments.

Setting [5] is: 0.5, 1, 2 or 4 mg/kg, single injection, p>0.05.
Setting [6] is: 10 consecutive days i.p., 1 mg/kg.

As to `CC(N)Cc1cccc(C(F)(F)F)c1` (single isomer, unassigned; (+)) [dexnorfenfluramine, (+)2-amino-1-(3-trifluoromethylphenyl) propane], in the experiment with Brain APP holoprotein, the “Brain APP holoprotein levels” value is recorded as “not altered”. Further, in experiment [1] (setting [5]), the “Effect on levels of Aβ1-40 in the cerebrospinal fluid relative to control” value was “no significant effect”. For the same molecule, the “Aβ1-40 levels in CSF relative to control” value in experiment [1] (setting [6]) was “decreased”. For the same molecule, the “Effect on APP overexpression in cultured astrocytes” value in experiment [2] is “can inhibit APP overexpression”. Moreover, the “Effect on levels of Aβ1-42 in the cerebrospinal fluid relative to control” value in experiment [3] (setting [5]) was “no significant effect”. Further, the “Aβ1-42 levels in CSF relative to control” value in experiment [3] (setting [6]) is recorded as “decreased”. Moreover, the “APPs levels in the cerebrospinal fluid relative to saline-injected control” value in experiment [4] (0.5 mg/kg i.p.) amounted to 1.25 fold; in experiment [4] (1 mg/kg i.p.), 1.45 fold; in experiment [4] (2 mg/kg i.p.), 1.6 fold; in experiment [4] (4 mg/kg i.p.), 1.4 fold. The “APPs levels in the CSF relative to control group” value is on record as 1.5 fold in experiment [4] (1 mg/kg, 1h after injection); 2.0 fold in experiment [4] (1 mg/kg, 2h after injection); 1.3 fold in experiment [4] (1 mg/kg, 4h after injection); 1.5 fold in experiment [4] (1 mg/kg, 8h after injection). For the same molecule, in experiment [4] (setting [6]), the “Increase of APPs levels in CSF relative to control” value was 1.6 fold.
As to `O=C(c1ccc(F)cc1)C1CCN(CCn2c(=O)[nH]c3ccccc3c2=O)CC1` [ketanserin], the “Inhibition of the stimulatory effect of dexnorfenfluramine (1 mg/kg) on APPs in CSF” value in experiment [4] was “completely inhibited”.
The same measure, in the same setting: with `Cc1nc2sccn2c(=O)c1CCN1CCC(=C(c2ccc(F)cc2)c2ccc(F)cc2)CC1` [ritanserin] the entry was “completely inhibited”.
